According to publication PMC7211193, “Evaluation of absorption, distribution, metabolism, and excretion of [^14C]-rucaparib, a poly(ADP-ribose) polymerase inhibitor, in patients with advanced solid tumors” (Investigational New Drugs, 2019):

Columns and labels:
Format in all cases: in vivo, human
[1] = Metabolite identification by LC-MS/MS in plasma, urine and feces; conditions: F feces, P plasma, U urine
Method: (§1) Metabolite profiling and identification were performed on an LC system (Agilent) coupled to an LTQ Orbitrap mass spectrometer (Thermo Electron, Waltham, MA, USA) in combination with offline TopCount (LC-MS-TopCount) or online Radiomatic 625TR (LC-MS-Radiomatic; PerkinElmer). Proposed structures of the metabolites were based on accurate mass (<5 ppm) and comparison of mass spectral data of parent compound rucaparib and metabolite standard M324. The Radiomatic 625TR flow detector, equipped with a 200 μL flow cell, was operated using scintillation cocktail (Ultima-Flo M) delivered at a flow rate of 1 mL/min. Chromatography was done using a Phenomenex (Torrance, CA, USA) Luna Phenyl-Hexyl column (250 × 2 mm, 5 μm, 100 Å) at ambient temperature during the sample analysis. The mobile phase was (A) 0.05% TFA in water and (B) 0.05% TFA in acetonitrile, with a 0.2 mL/min flow rate. The gradient was as follows: 5% B over 2.1 min, to 20% B in 1.0 min, to 35% B in 16.9 min, isocratic at 35% B for 5 min, to 95% B over 5 min, and reduced to 5% B over 1 min, with total run time 45 min.
The LTQ Orbitrap mass spectrometer was equipped with an electrospray ionization interface and operated in positive ionization mode for metabolite profiling and identification. Mass spectra were acquired in full scan (MS) (m/z 150–1500) and data-dependent scan modes. Mass spectrometer parameter settings were: spray voltage, +5.0 kV; capillary temperature, 350 °C; sheath gas, 80 (arbitrary unit); auxiliary gas, 30 (arbitrary unit); activation Q, 0.25; activation time, 30 msec; resolution, 7500; and collision energy, 35 eV.
The structures of the metabolites were identified by LC-MS/MS based on comparisons of mass spectral fragmentation patterns with those produced by the parent compound. Further confirmation of the identities of the metabolites was based on the elemental composition determined from accurate mass analyses using an Orbitrap high-resolution mass spectrometer.
The structures of the major metabolites found in plasma, urine, and feces were also confirmed by comparisons with the synthetic reference standard M324.

[2] = Metabolite profiling in pooled feces (LC-MS-Radiomatic); conditions: for % Dose in feces: pooled fecal homogenate, % of administered dose
Method: For each patient, homogenized feces samples from different collection intervals were pooled in proportion to their sample weight in order to obtain a pooled sample covering 90% of the TRA recovered in feces. Aliquots of the pooled fecal samples were extracted at least twice with acetonitrile. The obtained supernatant was evaporated. The dried residues were reconstituted in 40% DMSO in water to obtain maximum recovery. An aliquot of the supernatant was analyzed for TRA to determine extraction efficiency, and the mean recovery was ≈75%. Aliquots of the supernatants were injected into the HPLC coupled to UV and radioactive detectors to obtain metabolite profiles. The sample supernatants were also analyzed using LC-MS to identify metabolites.
as §1
(§2) The abundance of unchanged rucaparib and metabolites identified in plasma, urine, and feces was determined as a percentage of the TRA in the analyzed samples. Percentage of the administered dose of rucaparib and metabolites was calculated in urine and feces (formula A). The concentration of rucaparib and its metabolites in plasma (ng Eq h/mL) was calculated based on the specific activity, TRA, and percentage of peaks (formula B). The AUC0-24h value of rucaparib and its major metabolite M324 in plasma was calculated using both Hamilton method (formula C) and linear trapezoidal method (formula D). • (A) %Doseofmetabolite=TRAinurineorfeces(dpm)÷TRAinadministereddose(dpm)×%metabolitesinmatrix • (B) Metaboliteconcentrationsinplasma(ngEq/mL)=TRAinplasma(dpm/mL)specificactivity(ngEq/dpm)×%metabolitesinthematrix • (C) Hamiltonmethod:AUC0−24h(ngEqh/mL)=concentrationinHamilton(AUC0−24h)pooledplasma(ngEq/mL)×24(h) • (D) Lineartrapezoidalmethod:AUC0−24h(ngEqh/mL)=C1h/2×1h+C1h+C4h/2×(4h−1h)+C4h+C8h/2×(8h−4h)+C8h+C24h/2×(24h−8h)

[3] = Metabolite profiling in plasma (LC-MS-TopCount)
Method: Plasma samples from six patients were pooled using two methods: (1) A Hamilton pool plasma (0–24 h) for metabolite profile determination was prepared by combining plasma aliquots of a volume proportional to the time interval used for calculating the AUC (AUC0-24h pool) for each patient and (2) four time-point pooling samples were obtained by equal volume pool at 1, 4, 8, and 24 h across six patients. In addition, plasma samples at 1, 8, and 24 h were selected from three patients (Patients 03, 08, and 09) for metabolite profiles analysis to check the individual differences between patients. Samples collected after 24 h post dose were not included in the pooling due to the low radioactivity at later time points. All plasma samples (pooled and from individuals) were extracted at least two times with acetonitrile. All supernatants were evaporated to dryness, and the dried residues were reconstituted in 20% acetonitrile in water containing 0.1% TFA. The sample recovery was obtained by comparing the radioactivity concentrations before and after extraction, and the mean recovery was about 70%.
Aliquots of the supernatants were injected into the HPLC, and the HPLC elutes were collected as fractions at intervals of 30 sec per well into LumaPlate-96 DeepWell microplates (PerkinElmer). Due to the low radioactivity in each plasma sample, metabolite profiles were obtained by TopCount (PerkinElmer) analysis of HPLC elutes. The fractions were dried at room temperature, and then analyzed by a TopCount NXT radiometric microplate reader (PerkinElmer) to obtain metabolite profiles. The supernatants of extracts were also analyzed using an LC-MS method to identify metabolites.
as §1, §2

[4] = 0-24 h pooled plasma, N = 6, mean ± SD

With `CNCc1ccc(-c2[nH]c3cc(F)cc4c3c2CCNC4=O)cc1` [Rucaparib, rucaparib] the “Matrix in which identified” value [1] was “P, U, F”, the “% of dose in pooled fecal homogenate, Patient 01” value ([2]; Patient 01) was 50.6 % dose and the “% of dose in pooled fecal homogenate, Patient 05” value ([2]; Patient 05) was 55.8 % dose. The “% of dose in pooled fecal homogenate, Patient 06” value ([2]; Patient 06) was 70.1 % dose, the “% of dose in pooled fecal homogenate, Patient 08” value ([2]; Patient 08) was 68.2 % dose and the “% of dose in pooled fecal homogenate, Patient 09” value ([2]; Patient 09) was 71.8 % dose. For the same molecule, the “% Peak (of TRA) in feces” value ([2]; pooled fecal homogenate covering >90% of fecal excretion, N = 6, mean ± SD) was 94.9 ± 4.95%, the “% Dose in feces” value ([2]; N = 6, mean ± SD) was 63.9 ± 8.60% and the “% Dose in feces” value ([2]; N = 6, mean ± SD, listed as rucaparib) was 63.9% and ≈ 64%. For the same molecule, the “% Peak (of plasma radioactivity), Hamilton (AUC0-24h) pooled plasma” value [3, 4] was 64.0 ± 13.7%, the “Concentration, Hamilton (AUC0-24h) pooled plasma” value [3, 4] was 335 ± 120 ng Eq/mL and the “% Peak (of plasma radioactivity), Hamilton (AUC0-24h) pooled plasma” value ([3]; 0-24 h pooled plasma, N = 6, mean ± SD, listed as rucaparib) was 64.0% and ≈ 64%. For the same molecule, the “% Radioactive peaks in individual plasma, Patient 03, 1 h” value ([3]; Patient 03, 1 h) was 75.0%, the “% Radioactive peaks in individual plasma, Patient 03, 8 h” value ([3]; Patient 03, 8 h) was 66.7% and the “% Radioactive peaks in individual plasma, Patient 03, 24 h” value ([3]; Patient 03, 24 h) was 36.1%. For the same molecule, the “% Radioactive peaks in individual plasma, Patient 08, 1 h” value ([3]; Patient 08, 1 h) was 92.1%, the “% Radioactive peaks in individual plasma, Patient 08, 8 h” value ([3]; Patient 08, 8 h) was 68.2% and the “% Radioactive peaks in individual plasma, Patient 08, 24 h” value ([3]; Patient 08, 24 h) was 38.5%. For the same molecule, the “% Radioactive peaks in individual plasma, Patient 09, 1 h” value ([3]; Patient 09, 1 h) was 84.6%, the “% Radioactive peaks in individual plasma, Patient 09, 8 h” value ([3]; Patient 09, 8 h) was 82.1% and the “% Radioactive peaks in individual plasma, Patient 09, 24 h” value ([3]; Patient 09, 24 h) was 56.5%. The “% Radioactive peaks in individual plasma, Mean ± SD, 1 h” value ([3]; Patients 03, 08, 09, 1 h) was 83.9 ± 8.57%, the “% Radioactive peaks in individual plasma, Mean ± SD, 8 h” value ([3]; Patients 03, 08, 09, 8 h) was 72.3 ± 8.49% and the “% Radioactive peaks in individual plasma, Mean ± SD, 24 h” value ([3]; Patients 03, 08, 09, 24 h) was 43.7 ± 11.1%. The “AUC0-24h, Hamilton (AUC0-24h) pooled plasma” value ([3]; concentration in 0-24-h pooled sample × 24 h) was 8040 ng Eq h/mL, the concentration at 1 h ([3]; human, plasma, oral, 600 mg, single pooled sample from all six patients, 1 h, read-out: Mean concentration, time point pooled plasma, 1 h) was 317 ng/mL and the concentration at 4 h ([3]; human, plasma, oral, 600 mg, single pooled sample from all six patients, 4 h, read-out: Mean concentration, time point pooled plasma, 4 h) was 590 ng/mL. The concentration at 8 h ([3]; human, plasma, oral, 600 mg, single pooled sample from all six patients, 8 h, read-out: Mean concentration, time point pooled plasma, 8 h) was 545 ng/mL, the concentration at 24 h ([3]; human, plasma, oral, 600 mg, single pooled sample from all six patients, 24 h, read-out: Mean concentration, time point pooled plasma, 24 h) was 151 ng/mL and the “Mean AUC0-24h, time point pooled plasma” value ([3]; trapezoidal method from 1, 4, 8, 24 h pools) was 9360 ng Eq h/mL.
